Assay results as given in PubChem BioAssay (NCI).
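Where inhibition never reached the appropriate level, the endpoint shown equals the highest concentration tested. Otherwise, values were interpolated linearly from a five-concentration, 48-hour dose response in 96-well plates. TGI: concentration producing complete growth inhibition.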

How the values were obtained:
Assay in all cases: NCI-60 cell line screen, 48 h
[1] = system: 786-0 renal
[2] = system: A498 renal
[3] = system: A549 NSCLC
[4] = system: ACHN renal
[5] = system: CAKI-1 renal
[6] = system: CCRF-CEM leukemia
[7] = system: COLO 205 colon
[8] = system: DLD-1 colon
[9] = system: DMS 114 small cell lung
[10] = system: DMS 273 small cell lung
[11] = system: EKVX NSCLC
[12] = system: HCC-2998 colon
[13] = system: HCT-116 colon
[14] = system: HCT-15 colon
[15] = system: HL-60(TB) leukemia
[16] = system: HOP-18 NSCLC
[17] = system: HOP-62 NSCLC
[18] = system: HOP-92 NSCLC
[19] = system: HT29 colon
[20] = system: IGROV1 ovarian
[21] = system: K-562 leukemia
[22] = system: KM12 colon
[23] = system: KM20L2 colon
[24] = system: LOX IMVI melanoma
[25] = system: LXFL 529 NSCLC
[26] = system: M14 melanoma
[27] = system: M19-MEL melanoma
[28] = system: MALME-3M melanoma
[29] = system: MOLT-4 leukemia
[30] = system: NCI-H226 lung
[31] = system: NCI-H23 lung
[32] = system: NCI-H460 lung
[33] = system: NCI-H522 lung
[34] = system: OVCAR-3 ovarian
[35] = system: OVCAR-4 ovarian
[36] = system: OVCAR-5 ovarian
[37] = system: OVCAR-8 ovarian
[38] = system: RPMI-8226 leukemia
[39] = system: RXF 393 renal
[40] = system: SF-268 CNS
[41] = system: SF-295 CNS
[42] = system: SF-539 CNS
[43] = system: SK-MEL-2 melanoma
[44] = system: SK-MEL-28 melanoma
[45] = system: SK-MEL-5 melanoma
[46] = system: SK-OV-3 ovarian
[47] = system: SN12C renal
[48] = system: SNB-19 CNS
[49] = system: SNB-75 CNS
[50] = system: SNB-78 CNS
[51] = system: SR leukemia
[52] = system: SW-620 colon
[53] = system: TK-10 renal
[54] = system: U251 CNS
[55] = system: UACC-257 melanoma
[56] = system: UACC-62 melanoma
[57] = system: UO-31 renal
[58] = system: XF 498 CNS

Question: Which results are given for `C=C(Nc1ccc(OC)cc1OC)C(=O)Cc1cccc[n+]1[O-]`?
Answer: TGI [1]: > 100 µM; TGI [2]: > 100 µM; TGI [3]: > 100 µM; TGI [4]: > 100 µM; TGI [5]: > 100 µM; TGI [6]: > 100 µM; TGI [7]: > 100 µM; TGI [8]: > 100 µM; TGI [9]: > 100 µM; TGI [10]: > 100 µM; TGI [11]: > 100 µM; TGI [12]: > 100 µM; TGI [13]: > 100 µM; TGI [14]: > 100 µM; TGI [15]: > 100 µM; TGI [16]: > 100 µM; TGI [17]: > 100 µM; TGI [18]: > 100 µM; TGI [19]: > 100 µM; TGI [20]: > 100 µM; TGI [21]: > 100 µM; TGI [22]: > 100 µM; TGI [23]: > 100 µM; TGI [24]: > 100 µM; TGI [25]: > 100 µM; TGI [26]: > 100 µM; TGI [27]: > 100 µM; TGI [28]: > 100 µM; TGI [29]: > 100 µM; TGI [30]: > 100 µM; TGI [31]: > 100 µM; TGI [32]: > 100 µM; TGI [33]: > 100 µM; TGI [34]: > 100 µM; TGI [35]: > 100 µM; TGI [36]: > 100 µM; TGI [37]: > 100 µM; TGI [38]: > 100 µM; TGI [39]: > 100 µM; TGI [40]: > 100 µM; TGI [41]: > 100 µM; TGI [42]: > 100 µM; TGI [43]: > 100 µM; TGI [44]: > 100 µM; TGI [45]: > 100 µM; TGI [46]: > 100 µM; TGI [47]: > 100 µM; TGI [48]: > 100 µM; TGI [49]: > 100 µM; TGI [50]: > 100 µM; TGI [51]: > 100 µM; TGI [52]: > 100 µM; TGI [53]: > 100 µM; TGI [54]: > 100 µM; TGI [55]: > 100 µM; TGI [56]: > 100 µM; TGI [57]: > 100 µM; TGI [58]: > 100 µM

Question: Which results are given for `Cn1c(=O)c2c3ccccc3c(C(=O)c3ccccc3)n2c2ccccc21`?
Answer: TGI [1]: > 100 µM; TGI [2]: > 100 µM; TGI [3]: > 100 µM; TGI [4]: > 100 µM; TGI [5]: > 100 µM; TGI [6]: > 31.6 µM; TGI [7]: > 100 µM; TGI [8]: > 100 µM; TGI [9]: > 100 µM; TGI [10]: > 100 µM; TGI [11]: > 100 µM; TGI [12]: > 100 µM; TGI [13]: > 100 µM; TGI [14]: > 100 µM; TGI [15]: > 100 µM; TGI [16]: > 100 µM; TGI [17]: > 100 µM; TGI [18]: > 84.2 µM; TGI [19]: > 100 µM; TGI [20]: > 100 µM; TGI [21]: > 100 µM; TGI [22]: > 100 µM; TGI [23]: > 100 µM; TGI [24]: > 100 µM; TGI [25]: > 100 µM; TGI [26]: > 100 µM; TGI [27]: > 100 µM; TGI [28]: > 100 µM; TGI [29]: > 100 µM; TGI [30]: > 100 µM; TGI [31]: > 100 µM; TGI [32]: > 100 µM; TGI [33]: > 100 µM; TGI [34]: > 100 µM; TGI [35]: > 100 µM; TGI [36]: > 100 µM; TGI [37]: > 100 µM; TGI [38]: > 100 µM; TGI [39]: > 100 µM; TGI [40]: > 100 µM; TGI [41]: > 100 µM; TGI [42]: > 100 µM; TGI [43]: > 100 µM; TGI [44]: > 100 µM; TGI [45]: > 100 µM; TGI [46]: > 100 µM; TGI [47]: > 100 µM; TGI [48]: > 100 µM; TGI [49]: 15 µM; TGI [50]: > 100 µM; TGI [51]: > 100 µM; TGI [52]: > 100 µM; TGI [53]: > 96.6 µM; TGI [54]: > 100 µM; TGI [55]: > 100 µM; TGI [56]: > 30.1 µM; TGI [57]: > 100 µM; TGI [58]: > 100 µM
